Experimental findings from US8377974B2 (Millennium Pharmaceuticals, Inc., priority 2004, dated 2013) are described below.

The target in this assay is T1, human plasma protein factor Xa (Homo sapiens, UniProt P00742).
T1 construct: measure proteolytic activity of the enzyme (factor Xa); purchased Haematologic Technologies (Essex Junction, Vt.); host or cells: human plasma
T1 sequence (P00742 235-488 limits assumed): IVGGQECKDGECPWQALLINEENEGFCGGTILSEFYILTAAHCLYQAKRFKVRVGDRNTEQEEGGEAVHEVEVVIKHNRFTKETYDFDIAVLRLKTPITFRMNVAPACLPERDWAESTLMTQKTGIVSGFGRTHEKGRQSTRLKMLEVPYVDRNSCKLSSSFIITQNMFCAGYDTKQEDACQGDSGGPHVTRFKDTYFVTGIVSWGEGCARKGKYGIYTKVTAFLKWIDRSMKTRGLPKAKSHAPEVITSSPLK
T1 sequence (P00742 41-179 partner limits assumed): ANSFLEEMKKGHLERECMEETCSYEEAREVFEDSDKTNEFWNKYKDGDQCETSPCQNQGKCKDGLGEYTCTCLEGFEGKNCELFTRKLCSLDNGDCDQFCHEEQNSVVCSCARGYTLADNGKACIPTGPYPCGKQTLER
Put plainly: Factor Xa IC50 determination: cleavage of paranitroanilide substrate S-2765 in 96-well plates. The assay is classed as biochemical. The following applies: fXa 1 nM, S-2765 100 μM, Tris buffered saline pH 7.4, room temperature. Put shortly:
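Human plasma factor Xa (1 nM) preincubated 5 min at room temperature with inhibitor (0.01 nM–10 μM final) in Tris-buffered saline pH 7.4 with 5 mM CaCl2, 0.1% BSA, 5% DMSO. S-2765 at 100 μM final; hydrolysis at 405 nm over 2 min. IC50 from 4-parameter fit of initial velocities.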
In turn, `N=C(c1ccc(-n2cc(CNC(=O)c3ccc(Cl)s3)nn2)cc1)N1CCCCC1` [Example 319, 5-Chloro-N-((1-(4-(imino(piperidin-1-yl)methyl)phenyl)-1H-1,2,3-triazol-4-yl)methyl)thiophene-2-carboxamide] came in with a half-maximal inhibitory concentration (IC50) of at most 100 nM.

Regarding `CN(C)C(=N)c1ccc(-n2cc(CNC(=O)c3ccc(Cl)s3)nn2)c(F)c1` [Example 320, N-((1-(4-(N,N-Dimethylcarbamimidoyl)-2-fluorophenyl)-1H-1,2,3-triazol-4-yl)methyl)-5-chlorothiophene-2-carboxamide], the concentration for half-maximal inhibition (IC50) is at most 100 nM.

Consider `N=C(c1ccc(-n2cc(CNC(=O)c3ccc(Cl)s3)nn2)c(F)c1)N1CCC1` [Example 321, N-((1-(4-(Azetidin-1-yl(imino)methyl)-2-fluorophenyl)-1H-1,2,3-triazol-4-yl)methyl)-5-chlorothiophene-2-carboxamide], for which the IC50 was at most 100 nM.

The molecule `N=C(c1ccc(-n2cc(CNC(=O)c3ccc(Cl)s3)nn2)c(F)c1)N1CCCC1` [Example 322, 5-Chloro-N-((1-(2-fluoro-4-(imino(pyrrolidin-1-yl)methyl)phenyl)-1H-1,2,3-triazol-4-yl)methyl)thiophene-2-carboxamide] yielded an IC50 of at most 100 nM.

For the molecule `N=C(c1ccc(-n2cc(CNC(=O)c3ccc(Cl)s3)nn2)c(F)c1)N1CCCCC1` [Example 323, 5-Chloro-N-((1-(2-fluoro-4-(imino(piperidin-1-yl)methyl)phenyl)-1H-1,2,3-triazol-4-yl)methyl)thiophene-2-carboxamide], the IC50 was at most 100 nM.

Molecule `CN1CCN=C1c1ccc(-n2cc(CNC(=O)c3ccc(Cl)s3)nn2)c(F)c1` [Example 324, 5-Chloro-N-((1-(2-fluoro-4-(1-methyl-4,5-dihydro-1H-imidazol-2-yl)phenyl)-1H-1,2,3-triazol-4-yl)methyl)thiophene-2-carboxamide] showed an IC50 of at most 100 nM.

`CN(C)C(=N)c1ccc(-n2cc(CNC(=O)c3ccc(Cl)s3)cn2)cc1` [Example 325, N-((1-(4-(N,N-Dimethylcarbamimidoyl)phenyl)-1H-pyrazol-4-yl)methyl)-5-chlorothiophene-2-carboxamide]: the half-inhibitory concentration (IC50) is at most 100 nM.

For the molecule `CN1CCN=C1c1ccc(-n2cc(CNC(=O)c3ccc(Cl)s3)cn2)cc1` [Example 326, 5-Chloro-N-((1-(4-(1-methyl-4,5-dihydro-1H-imidazol-2-yl)phenyl)-1H-pyrazol-4-yl)methyl)thiophene-2-carboxamide], the IC50 is at most 100 nM.

For the molecule `N=C(c1ccc(-n2cc(CNC(=O)c3ccc(Cl)s3)cn2)cc1)N1CCC1` [Example 327, N-((1-(4-(Azetidin-1-yl(imino)methyl)phenyl)-1H-pyrazol-4-yl)methyl)-5-chlorothiophene-2-carboxamide], the concentration for half-maximal inhibition (IC50) is at most 100 nM.

`N=C(c1ccc(-n2cc(CNC(=O)c3ccc(Cl)s3)cn2)cc1)N1CCCC1` [Example 328, 5-Chloro-N-((1-(4-(imino(pyrrolidin-1-yl)methyl)phenyl)-1H-pyrazol-4-yl)methyl)thiophene-2-carboxamide] had an IC50 of at most 100 nM.

For `N=C(c1ccc(-n2cc(CNC(=O)c3ccc(Cl)s3)cn2)cc1)N1CCCCC1` [Example 329, 5-Chloro-N-((1-(4-(imino(piperidin-1-yl)methyl)phenyl)-1H-pyrazol-4-yl)methyl)thiophene-2-carboxamide], the IC50 is at most 100 nM.

Regarding `CN(C)C(=N)c1ccc(-c2cc(CNC(=O)c3ccc(Cl)s3)no2)cc1` [Example 330, N-((5-(4-(N,N-Dimethylcarbamimidoyl)phenyl)isoxazol-3-yl)methyl)-5-chlorothiophene-2-carboxamide], the 50% inhibitory concentration (IC50) was at most 100 nM.

Molecule `CN1CCN=C1c1ccc(-c2cc(CNC(=O)c3ccc(Cl)s3)no2)cc1` [Example 331, 5-Chloro-N-((5-(4-(1-methyl-4,5-dihydro-1H-imidazol-2-yl)phenyl)isoxazol-3-yl)methyl)thiophene-2-carboxamide] gave a half-maximal inhibitory concentration (IC50) of at most 100 nM.

For `N=C(c1ccc(-c2cc(CNC(=O)c3ccc(Cl)s3)no2)cc1)N1CCCC1` [Example 332, 5-Chloro-N-((5-(4-(imino(pyrrolidin-1-yl)methyl)phenyl)isoxazol-3-yl)methyl)thiophene-2-carboxamide], the IC50 is at most 100 nM.

`N=C(c1ccc(-c2cc(CNC(=O)c3ccc(Cl)s3)no2)cc1)N1CCCCC1` [Example 333, 5-Chloro-N-((5-(4-(imino(piperidin-1-yl)methyl)phenyl)isoxazol-3-yl)methyl)thiophene-2-carboxamide] returned an IC50 of at most 100 nM.

In the case of `CN(C)C(=N)c1ccc(-c2noc(CNC(=O)c3ccc(Cl)s3)n2)cc1` [Example 334, N-((3-(4-(N,N-Dimethylcarbamimidoyl)phenyl)-1,2,4-oxadiazol-5-yl)methyl)-5-chlorothiophene-2-carboxamide], the IC50 is at most 100 nM.

As for `CN1CCN=C1c1ccc(-c2noc(CNC(=O)c3ccc(Cl)s3)n2)cc1` [Example 335, 5-Chloro-N-((3-(4-(1-methyl-4,5-dihydro-1H-imidazol-2-yl)phenyl)-1,2,4-oxadiazol-5-yl)methyl)thiophene-2-carboxamide], the IC50 is at most 100 nM.

Molecule `N=C(c1ccc(-c2noc(CNC(=O)c3ccc(Cl)s3)n2)cc1)N1CCCC1` [Example 336, 5-Chloro-N-((3-(4-(imino(pyrrolidin-1-yl)methyl)phenyl)-1,2,4-oxadiazol-5-yl)methyl)thiophene-2-carboxamide] showed an IC50 of at most 100 nM.

As to `N=C(c1ccc(-c2noc(CNC(=O)c3ccc(Cl)s3)n2)cc1)N1CCCCC1` [Example 337, 5-Chloro-N-((3-(4-(imino(piperidin-1-yl)methyl)phenyl)-1,2,4-oxadiazol-5-yl)methyl)thiophene-2-carboxamide], the IC50 is at most 100 nM.

As to `CN(C)C(=N)c1ccc(-c2nc(CNC(=O)c3ccc(Cl)s3)co2)cc1` [Example 338, N-((2-(4-(N,N-Dimethylcarbamimidoyl)phenyl)oxazol-4-yl)methyl)-5-chlorothiophene-2-carboxamide], the half-inhibitory concentration (IC50) was at most 100 nM.

Molecule `CN1CCN=C1c1ccc(-c2nc(CNC(=O)c3ccc(Cl)s3)co2)cc1` [Example 339, 5-Chloro-N-((2-(4-(1-methyl-4,5-dihydro-1H-imidazol-2-yl)phenyl)oxazol-4-yl)methyl)thiophene-2-carboxamide] showed a half-inhibitory concentration (IC50) of at most 100 nM.

The molecule `N=C(c1ccc(-c2nc(CNC(=O)c3ccc(Cl)s3)co2)cc1)N1CCCC1` [Example 340, 5-Chloro-N-((2-(4-(imino(pyrrolidin-1-yl)methyl)phenyl)oxazol-4-yl)methyl)thiophene-2-carboxamide] registered an IC50 of at most 100 nM.

`N=C(c1ccc(-c2nc(CNC(=O)c3ccc(Cl)s3)co2)cc1)N1CCCCC1` [Example 341, 5-Chloro-N-((2-(4-(imino(piperidin-1-yl)methyl)phenyl)oxazol-4-yl)methyl)thiophene-2-carboxamide] gave a half-inhibitory concentration (IC50) of at most 100 nM.

Regarding `CCOC(=O)C1CCN(C(=N)c2ccc(-c3nc(CNC(=O)c4ccc(Cl)s4)co3)cc2)CC1` [Example 342, Ethyl 1-((4-(4-((2-chlorothiophene-5-carboxamido)methyl)oxazol-2-yl)phenyl)(imino)methyl)piperidine-4-carboxylate], the IC50 fell in the range of 100 to 500 nM.

Regarding `CCN(C)C(=N)c1ccc(-c2nc(CNC(=O)c3ccc(Cl)s3)co2)cc1` [Example 343, N-((2-(4-(N-Ethyl-N-methylcarbamimidoyl)phenyl)oxazol-4-yl)methyl)-5-chlorothiophene-2-carboxamide], the concentration for half-maximal inhibition (IC50) was in the range of 100 to 500 nM.

As for `CCCN(C)C(=N)c1ccc(-c2nc(CNC(=O)c3ccc(Cl)s3)co2)cc1` [Example 344, N-((2-(4-(N-Methyl-N-propylcarbamimidoyl)phenyl)oxazol-4-yl)methyl)-5-chlorothiophene-2-carboxamide], the IC50 lay within 100 to 500 nM.

Regarding `CN(C)CCN(C)C(=N)c1ccc(-c2nc(CNC(=O)c3ccc(Cl)s3)co2)cc1` [Example 345, N-((2-(4-(N-(2-(Dimethylamino)ethyl)-N-methylcarbamimidoyl)phenyl)oxazol-4-yl)methyl)-5-chlorothiophene-2-carboxamide], the IC50 is 100 to 500 nM.

In the case of `COCCN(C)C(=N)c1ccc(-c2nc(CNC(=O)c3ccc(Cl)s3)co2)cc1` [Example 346, N-((2-(4-(N-(2-Methoxyethyl)-N-methylcarbamimidoyl)phenyl)oxazol-4-yl)methyl)-5-chlorothiophene-2-carboxamide], the IC50 lay in the range of 100 to 500 nM.

Regarding `N=C(c1ccc(-c2nc(CNC(=O)c3ccc(Cl)s3)co2)cc1)N1CCC(C(N)=O)CC1` [Example 347, 1-((4-(4-((2-Chlorothiophene-5-carboxamido)methyl)oxazol-2-yl)phenyl)(imino)methyl)piperidine-4-carboxamide], the IC50 is 100 to 500 nM.

`CNC(=N)c1ccc(-c2nc(CNC(=O)c3ccc(Cl)s3)co2)cc1` [Example 348, N-((2-(4-(N-Methylcarbamimidoyl)phenyl)oxazol-4-yl)methyl)-5-chlorothiophene-2-carboxamide] showed a concentration for half-maximal inhibition (IC50) of at least 500 nM.

As to `CN(Cc1ccco1)C(=N)c1ccc(-c2nc(CNC(=O)c3ccc(Cl)s3)co2)cc1` [Example 349, N-((2-(4-(N-(Furan-2-ylmethyl)-N-methylcarbamimidoyl)phenyl)oxazol-4-yl)methyl)-5-chlorothiophene-2-carboxamide], the IC50 was 100 to 500 nM.

Turning to `CN(C)C(=N)c1ccc(-c2nc(CNC(=O)c3ccc(Cl)s3)cs2)cc1` [Example 350, N-((2-(4-(N,N-Dimethylcarbamimidoyl)phenyl)thiazol-4-yl)methyl)-5-chlorothiophene-2-carboxamide], the IC50 was in the range of 100 to 500 nM.

Take `CN1CCN=C1c1ccc(-c2nc(CNC(=O)c3ccc(Cl)s3)cs2)cc1` [Example 351, 5-Chloro-N-((2-(4-(1-methyl-4,5-dihydro-1H-imidazol-2-yl)phenyl)thiazol-4-yl)methyl)thiophene-2-carboxamide]: the IC50 was 100 to 500 nM.

The term IC50 denotes the point on the concentration scale where inhibition reaches its midpoint. Low readings indicate greater potency in that assay, high ones weaker potency in that assay.
